Consider ten molecules from patent publication US7276576B1, “Mammalian ICYP (iodocyanopindolol) receptor and its applications” (Dainippon Sumitomo Pharma Co., Ltd., priority 1996, dated 2007).

Where two headings read alike, the source gives them in different places. Bounds are passed on as bounds.

In test [1] the target is T1, [125I]-ICYP specific binding site (SMBP, SM-11044 binding protein) in rat colon smooth muscle membranes (Rattus norvegicus, UniProt A0A8I6A822).
T1 construct: Membranes from colon smooth muscles were prepared as essentially described by Ek et al., 1986; from tissue
T1 sequence (A0A8I6A822 27-587): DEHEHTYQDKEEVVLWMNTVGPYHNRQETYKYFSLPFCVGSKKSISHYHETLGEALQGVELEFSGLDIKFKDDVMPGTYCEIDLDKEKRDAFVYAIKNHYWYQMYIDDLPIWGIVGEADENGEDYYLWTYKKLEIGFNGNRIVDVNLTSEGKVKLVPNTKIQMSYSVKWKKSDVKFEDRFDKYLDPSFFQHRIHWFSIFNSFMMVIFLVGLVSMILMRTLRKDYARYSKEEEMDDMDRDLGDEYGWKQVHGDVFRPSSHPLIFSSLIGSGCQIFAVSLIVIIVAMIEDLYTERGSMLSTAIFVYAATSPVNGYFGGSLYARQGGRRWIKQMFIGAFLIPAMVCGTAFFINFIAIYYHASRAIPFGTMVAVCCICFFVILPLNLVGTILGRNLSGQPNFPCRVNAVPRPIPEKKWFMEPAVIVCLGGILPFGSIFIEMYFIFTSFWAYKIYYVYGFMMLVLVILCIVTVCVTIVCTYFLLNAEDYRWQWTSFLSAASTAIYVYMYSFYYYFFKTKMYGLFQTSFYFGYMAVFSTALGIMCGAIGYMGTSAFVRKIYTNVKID
In words: [125I]-ICYP saturation and competition binding to rat colon membranes (Example 2). Particulars: for Ki: read-out: Ki on [125I]-ICYP specific binding to rat colon membranes. The protocol: Incubations were carried out at 37° C. for 30 min in a shaking water-bath incubator and terminated by addition of 4 ml of ice-cold Tris-saline followed by rapid filtration under vacuum on Whatman GF/B filter presoaked in Tris-saline containing 0.1% polyethyleneimine (pH 7.4). The filters were washed three times with 4 ml of ice-cold Tris-saline, transferred to plastic tubes and counted in a γ-counter.
Hill coefficient was calculated by linear regression using saturation experiment data. Pseudo-Hill coefficient and IC50 were determined by the computer program, InPlot™ (GraphPad Software, CA, USA).

In the next test the test system is guinea pig eosinophil. Put plainly: Leukotriene B4 induced guinea pig eosinophil chemotaxis. It is filed as cell-based. Particulars: for Effect of antagonist on the inhibition of eosinophil chemotaxis: inhibition by SM-11044 and BRL-35135A.
The subject of test [2] is rat colon smooth muscle segment. Put plainly: Relaxation of KCl-induced tonus in rat colon segment (organ bath). Particulars: for IA, rat colon relaxation: relative to isoproterenol; for EC50: Rattus norvegicus, read-out: pD2, rat colon relaxation (converted). The procedure:
Rat colon segment (2 cm) was suspended in organ bath containing 10 ml modified-Tyrode solution (Sugasawa T. et al. Eur. J. Pharmacol., 1992, 216, 207-215). The Tyrode solution contained 0.5 μM atropine, 0.5 μM desmethylimipramine, 30 μM hydrocortisone, 30 μM ascorbic acid, 10 μM phentolamine and 1 μM propranolol throughout study, in order to inhibit spontaneous contraction, neuronal and extra-neuronal uptake of norepinephrine, oxidation of catecholamines, possible α, β1- and β2-AR effects, respectively.
The relaxant action of agonists was determined by measuring relaxation of KCl (100 mM)-induced tonus evoked by cumulative addition of the agonists as described previously (Sugasawa T. et al. cited above). In the case of testing the effect of cyanopindolol, it was added 5-10 min before the addition of agonist.
(§1) Agonist concentration-ratios (CR) were determined from the EC50 values of the concentration-response curves of agonists with or without cyanopindolol, according to the method of Arunlakshana et al., 1959.
(§2) The EC50 values were calculated using the computer program, InPlot™.

In a further test the test system is rat white adipocytes. Put plainly: Lipolysis in rat white adipocytes. Particulars: for IA, rat white adipocyte lipolysis: relative to isoproterenol; for EC50: Rattus norvegicus, Adipocyte, read-out: pD2, rat white adipocyte lipolysis (converted). It is filed as cell-based. The procedure: White adipocytes were isolated from epididymal fat pads of male Wistar rats (190-230 g) and lipolysis was determined according to the previous report (Sugasawa T. et al. cited above). The cells were preincubated for 5 min at 37° C. in the presence of 30 μM ascorbic acid, 10 μM phentolamine and 1 μM propranolol.
Agonists were then applied and incubated for 90 min. In the case of testing the effect of cyanopindolol, it was added 5 min before the addition of agonist.
as §1, §2

For test [3], the system named is [125I]-ICYP specific binding site in rat skeletal muscle membranes. In words: [125I]-ICYP binding to rat skeletal muscle membranes. Particulars: 1 nM [125I]-ICYP; 10 μM 5-HT, 10 μM phentolamine and 20 μM propranolol. The protocol: Membranes from the colon smooth muscle and from skeletal muscle were prepared from male Wistar rats (300-360 g) as essentially mentioned in example 1.
Saturation binding studies were performed in a final volume of 200 μl of Tris-saline containing 50 μg membrane proteins and different concentrations ([…]) of [^125I]-ICYP, supplemented with 10 μM serotonine (5-HT), 10 μM phentolamine, 20 μM propranolol and 1.1 mM ascorbic acid (pH 7.4), to block possible 5-HT receptors, ARs and oxidation of catecholamines, respectively. The [^125I]-ICYP was used after removing methyl alcohol by compressed air to avoid the influence of the solvent. […] The filters were washed three times with 4 ml of ice-cold Tris-saline, transferred to plastic tubes and counted in a γ-counter.
Competition assays were performed against 1 nM [^125I]-ICYP. Non-specific binding was determined in the presence of 100 μM SM-11044. The inhibition constant, Ki, of a ligand was calculated using the equation described by Cheng and Prusoff (Biochem. Pharmacol., 1973, 22, 3099-3108). Hill coefficient was calculated by linear regression using saturation experiment data. Pseudo-Hill coefficient and IC50 were determined by the computer program, InPlot™ (GraphPad Software, CA, USA).

Test [4] deals with T2, SMBP in rat colon smooth muscle membranes (Rattus norvegicus, UniProt A0A8I6A822).
T2 construct: Membranes from colon smooth muscles were prepared as essentially described by Ek et al., 1986; from tissue
T2 sequence (A0A8I6A822 27-587): as above
In words: [125I]-ICYP saturation binding to rat colon membranes (Example 1). As to conditions: means ± SD. The protocol: Frozen rat colons (SD strains, male and female) were purchased from Pel-Freeze Biologicals (Arkansas, USA). Membranes from colon smooth muscles were prepared as essentially described by Ek et al., 1986, with the slight following modifications. The colon segment was washed in ice-cold Tris-saline (10 mM Tris/HCl, 154 mM NaCl, (pH 7.4)), cut open longitudinally and the mucosa was removed by scrubbing with a glass slide on ice-cold plastic plate. The smooth muscle preparations were homogenized with a Polytron homogenizer for 1 min. The homogenate was filtered through a gauze and centrifuged (1,500×g for 20 min at 4° C.), the supernatant was collected and centrifuged (50,000×g for 20 min at 4° C.). The pellet comprising the membranes was resuspended in Tris-saline and was stored at −80° C. until use. The protein concentration was determined by Bio-Rad protein assay kit (Bio-Rad USA).
Saturation binding studies were performed in a final volume of 200 μl of Tris-saline containing 50 μg membrane proteins and different concentrations (0.05-25 nM) of [^125I]-ICYP, in the presence of 10 μM serotonine (5-HT), 10 μM phentolamine, 20 μM (±) propranolol and 1.1 mM ascorbic-acid pH 7.4), to block possible 5-HT receptors, ARs and oxidation of catecholamines, respectively. […] The filters were washed three times with 4 ml of ice-cold Tris-saline, transferred to plastic tubes and counted in a γ-counter.

Test [5] deals with T3, 34 kDa photoaffinity-labeled protein (SMBP) in rat colon membranes (Rattus norvegicus, UniProt A0A8I6A822).
T3 construct: Membranes from colon smooth muscles were prepared as essentially described by Ek et al., 1986; from tissue
T3 sequence (A0A8I6A822 27-587): as above
Put plainly: Photoaffinity labeling of rat colon membranes with [125I]-ICYP-diazirine. It counts as binding. The procedure:
Incubations were carried out in the presence or absence of competitor at 37° C. for 45 min in the dark in a shaking water-bath incubator and terminated by addition of 10 ml of ice-cold Tris-saline followed by a rapid centrifugation (150,000×g for 10 min at 4° C.). The membranes were irradiated with a UV lamp for 5 min with cooling by circulating water. The labeled membranes were diluted with 10 ml of ice-cold Tris-saline, centrifuged (150,000×g for 30 min at 4° C.), and the pellet was resuspended in Tris-saline and kept at −80° C.
SDS-PAGE was performed under reducing conditions essentially as described by Laemmli, 1970, using 12% polyacrylamide gels (40% T, 2.6% C). […] After electrophoresis, the gels were dried and autoradiographed on X-OMAT™ AR film (Eastman Kodak Co., NY, USA), as specified in example 1, chapter <<(preparative SDS-PAGE>>.

Test [6] addresses rat SM-11044 binding protein (Ro-SMBP) of rat colon smooth muscle membranes (rat) (UniProt D3ZUD8). Put plainly: WGA-sepharose chromatography, elution with N-acetyl-D-glucosamine.
Where [7] appears, read: 1 nM [125I]-ICYP, 10 μM 5-HT, 10 μM phentolamine and 20 μM propranolol.
The mark [8] stands for this setting: 10 μM phentolamine and 1 μM propranolol, mean ± SEM.
Where [9] appears, read: relaxation of KCl (100 mM)-induced tonus, 10 μM phentolamine and 1 μM propranolol, mean ± SEM.
The mark [10] stands for this setting: up to the concentration of 1 mM.

As a reminder, the Ki is the dissociation constant of the complex between target and ligand, obtained from inhibition or displacement. With `C=CCc1ccccc1OCC(O)CNC(C)C` (racemic) [(±)-alprenolol, alprenolol], in test [1] (setting [7]), the Pseudo-Hill coefficient came to 0.85 ± 0.24 and the Ki was found to be 13.3 ± 2.4 µM. In the test with guinea pig eosinophil, the “Effect of antagonist on the inhibition of eosinophil chemotaxis” value is given as “antagonized”.
With `CC(C)NC[C@H](O)c1ccc(O)c(O)c1` (single isomer, unassigned) [(−)-isoproterenol, isoproterenol], the “IA, rat colon relaxation” value in test [2] (setting [8]) was 1.00 ± 0.063. Moreover, in test [2] (setting [9]), the EC50 is 0.229 µM. Moreover, in the test with rat white adipocytes (setting [8]), the “IA, rat white adipocyte lipolysis” value came to 1.00 ± 0.037 and the EC50 was 1.38 µM. Besides, the Ki in test [1] (setting [7]) was greater than 1000 µM. For the same molecule, in test [1] (setting [10]), the “Displacement of [125I]-ICYP specific binding” value is reported as “not displaced”. Besides, the “Displacement of [125I]-ICYP specific binding to skeletal muscle membranes” value in test [3] was “not displaced by isoproterenol up to concentrations of 10^−4 M”. For the same molecule, in the test with guinea pig eosinophil, the “Inhibition of leukotriene B4 induced guinea pig eosinophil chemotaxis” value is listed as “no such effect”.
Broadly, the Kd is the equilibrium constant for the complex coming apart. Take `CC(C)(C)NCC(O)COc1cccc2[nH]c(C#N)c(I)c12` (single isomer, unassigned; (-)) [[^125I]-ICYP, (−)-3-[^125I] iodocyanopindolol]: the Kd was determined as 0.011 ± 0.00095 µM in test [1] (Example 2 membranes (Wistar rats), 10 μM 5-HT, 10 μM phentolamine and 20 μM propranolol, read-out: Dissociation constant (Kd), Scatchard plot); 0.00722 ± 7e-06 µM in test [4] (Example 1 membranes (SD rats), blockade of adrenergic and serotonine receptors, read-out: Dissociation constant (Kd), Scatchard plot).
As to `CC(C)(C)NCC(O)COc1cccc2[nH]c(C#N)c([125I])c12` (single isomer, unassigned; (-)) [[^125I]-ICYP, (−)-3-[^125I] iodocyanopindolol], the “Specific binding at equilibrium levels” value in test [1] (1 nM [125I]-ICYP, 30 min, n=2) is recorded as 82.7±1.9%. Besides, the “Maximum number of binding sites (Bmax)” value in test [1] (Example 2 membranes, 10 μM 5-HT, 10 μM phentolamine and 20 μM propranolol) turned out to be 716.7±21.12 fmol/mg protein; in test [4] (Example 1 membranes), 1.13 ±0.071 pmol/mg membrane protein. The “Hill coefficient of the saturation curve” value in test [1] (saturation experiment, 30 min incubation) is 0.99±0.03.
`CNC[C@H](O)c1ccc(O)c(O)c1` [(−)-epinephrine, epinephrine]: the “IA, rat colon relaxation” value in test [2] (setting [8]) is 0.86 ± 0.137. In addition, the EC50 in test [2] is 1.2 µM; in the test with rat white adipocytes it was 6.92 µM. The “IA, rat white adipocyte lipolysis” value with rat white adipocytes (setting [8]) is on record as 0.91 ± 0.036. For the same molecule, the Ki in test [1] (setting [7]) was greater than 1000 µM. Moreover, the “Displacement of [125I]-ICYP specific binding” value in test [1] (setting [10]) is “not displaced”.
On to `NC[C@H](O)c1ccc(O)c(O)c1` [(−)-norepinephrine, norepinephrine], for which the “IA, rat colon relaxation” value in test [2] (setting [8]) is 0.85 ± 0.168. The EC50 in test [2] was 1.41 µM; in the test on rat white adipocytes it was 3.98 µM. In the test with rat white adipocytes (setting [8]), the “IA, rat white adipocyte lipolysis” value turned out to be 1.02 ± 0.058. Further, the Ki in test [1] (setting [7]) is greater than 1000 µM. In addition, the “Displacement of [125I]-ICYP specific binding” value in test [1] (setting [10]) is “not displaced”.
`COC(=O)COc1ccc(CC(C)NCC(O)c2cccc(Cl)c2)cc1` (stereo not drawn) [BRL-35135A, (R*R*)-(+)-4-[2′-[2-hydroxy 2-(3-chlorophenyl)ethylamino]propyl]phenoxyacetic acid methyl ester]: in test [1] (setting [7]), the Pseudo-Hill coefficient is 0.80 ± 0.14 and the Ki was found to be 1.4 ± 0.1 µM. In addition, the “Displacement of [125I]-ICYP specific binding (in words)” value in test [1] (competition binding, no concentration stated) is listed as “displaced the specific binding”. Moreover, in the test on guinea pig eosinophil, the “Inhibition of leukotriene B4 induced guinea pig eosinophil chemotaxis” value is recorded as “inhibiting”.
On to `CC(Cc1ccc(OCC(=O)O)cc1)NCC(O)c1cccc(Cl)c1` (centres unmarked) [BRL-37344], for which the “IA, rat colon relaxation” value in test [2] (setting [8]) was determined as 1.00 ± 0.126. The values for the EC50 (in test [2] (setting [9]); in the test with rat white adipocytes (setting [8])) were 0.0316 µM and 0.0562 µM, respectively. Moreover, the “IA, rat white adipocyte lipolysis” value with rat white adipocytes (setting [8]) was determined as 0.72 ± 0.0333. In addition, the Ki in test [1] (setting [7]) is greater than 100 µM. The “Displacement of [125I]-ICYP specific binding” value in test [1] (up to the concentration of 100 μM) was “did not displace”. In test [5] (competitor 100 μM, 1.5 nM [125I]-ICYP-diazirine, 10 μM 5-HT, 10 μM phentolamine, 20 μM propranolol), the “Displacement of the photoaffinity-labeled 34 kDa band” value is reported as “not displaced”. Moreover, the “Inhibition of leukotriene B4 induced guinea pig eosinophil chemotaxis” value with guinea pig eosinophil is reported as “no such effect”.
For `CC(C)NCC(O)COc1cccc2ccccc12` (centres unmarked) [propranolol], the “Effect on photoaffinity-labeled bands” value in test [5] (competitor 20 μM, 10 μM 5-HT and 10 μM phentolamine) is on record as “only the 34 kDa band remained visible”. Further, the “Effect of antagonist on the inhibition of eosinophil chemotaxis” value in the test on guinea pig eosinophil is on record as “unaffected”.

B1: Wheat Germ Agglutinine (WGA)-sepharose 6 MB (protein, UniProt P10968 27-197, looked up)
chain: QRCGEQGSNMECPNNLCCSQYGYCGMGGDYCGKGCQNGACWTSKRCGSQAGGATCTNNQCCSQYGYCGFGAEYCGAGCQGGPCRADIKCGSQAGGKLCPNNLCCSQWGFCGLGSEFCGGGCQSGACSTDKPCGKDAGGRVCTNNYCCSKWGSCGIGPGYCGAGCQSGGCDG
For B1, the percent of the radiolabeled material eluted by the specific sugar in test [6] worked out at 2.3%.
